From ChEMBL document CHEMBL1138923, “Structure-activity relationships of 1,5-biaryl pyrroles as EP1 receptor antagonists” (Bioorg Med Chem Lett, 2006)

Experiments:
[1] = molecular target: T1, Prostaglandin E2 receptor EP1 subtype (Homo sapiens, UniProt P34995); assay: Inhibition of [3H]PGE2 binding to EP1 receptor expressed in CHO cells; format: cell-based
T1 sequence (P34995 whole entry): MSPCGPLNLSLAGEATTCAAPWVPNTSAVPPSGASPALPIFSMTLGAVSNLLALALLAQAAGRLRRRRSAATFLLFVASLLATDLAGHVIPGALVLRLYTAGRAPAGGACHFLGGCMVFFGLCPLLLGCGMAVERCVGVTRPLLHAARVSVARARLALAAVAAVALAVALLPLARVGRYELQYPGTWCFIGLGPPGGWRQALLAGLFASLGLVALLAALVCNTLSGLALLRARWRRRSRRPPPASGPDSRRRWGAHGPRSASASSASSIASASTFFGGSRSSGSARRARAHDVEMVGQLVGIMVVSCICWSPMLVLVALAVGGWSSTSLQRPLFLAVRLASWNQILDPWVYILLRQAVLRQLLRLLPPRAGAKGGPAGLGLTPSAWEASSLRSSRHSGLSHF

Cytochrome P450 2C9 = Cytochrome P450 2C9 (Homo sapiens, UniProt P11712); assay: Inhibition of CYP450 2C9; format: ADME
[2] = Clearance in rat at 1 mg/kg, iv; format: ADME, organism-based; design: dose 1 mg/kg, route intravenous; details: in vivo
Rattus norvegicus = organism: Rattus norvegicus; assay: Decrease in weight bearing of left hind paw in rat FCA model of inflammatory pain 1 hr post dose; format: functional
[3] = Oral bioavailability in rat at 3 mg/kg, po; format: ADME, organism-based; details: in vivo
Cytochrome P450 (family) = Cytochrome P450 (family) (Homo sapiens, UniProt P04798+P05177+P05181+P08684+P10632+P10635+P11509+P11712+P13584+P20813+P20815+P20853+P24462+P24903+P33260+P33261+P51589+P78329+P98187+Q02928+Q08477+Q16678+Q16696+Q5TCH4+Q6VVX0+Q7Z449+Q8TAV3+Q96SQ9+Q9HB55); assay: Inhibition of CYP450; format: ADME
[4] = Volume of distribution in rat at 1 mg/kg, iv; format: ADME, organism-based; design: dose 1 mg/kg, route intravenous; details: in vivo, read-out: Vss
[5] = Half life in rat at 1 mg/kg, iv; format: ADME, organism-based; design: dose 1 mg/kg, route intravenous; details: in vivo

Chain of Cytochrome P450 2C9 (P11712 whole entry): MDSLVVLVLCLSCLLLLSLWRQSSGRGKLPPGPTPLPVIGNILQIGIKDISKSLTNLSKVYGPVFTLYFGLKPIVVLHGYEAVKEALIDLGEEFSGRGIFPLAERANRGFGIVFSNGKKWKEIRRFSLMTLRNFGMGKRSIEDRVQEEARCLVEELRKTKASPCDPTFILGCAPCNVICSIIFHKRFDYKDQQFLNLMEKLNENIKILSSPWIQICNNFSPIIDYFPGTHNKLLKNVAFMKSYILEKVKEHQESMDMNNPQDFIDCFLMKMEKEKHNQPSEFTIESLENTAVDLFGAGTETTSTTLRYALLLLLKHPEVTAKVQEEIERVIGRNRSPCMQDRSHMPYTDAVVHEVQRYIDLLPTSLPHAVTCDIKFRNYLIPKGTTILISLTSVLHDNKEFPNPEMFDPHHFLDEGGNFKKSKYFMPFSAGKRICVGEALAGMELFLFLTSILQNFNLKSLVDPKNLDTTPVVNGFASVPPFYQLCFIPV

| IC50 [1] [nM] | SMILES | other results |
| --- | --- | --- |
| 100 | O=C(O)c1cccc(-n2c(-c3cc(Cl)ccc3OCc3ccc(F)cc3F)ccc2C(F)(F)F)c1 | – |
| 15.8 | Cc1ccc(-c2cc(Br)ccc2OCC2CCCC2)n1-c1cccc(C(=O)O)c1 | – |
| 6.31 | Cc1ccc(-c2cc(Br)ccc2OCc2ccc(F)cc2)n1-c1cccc(C(=O)O)c1 | IC50 (Cytochrome P450 2C9): 3900 nM; clearance [2]: 42 mL/min/kg; ED50 (Rattus norvegicus): 9.2 mg/kg; bioavailability [3]: 44%; IC50 (Cytochrome P450 (family)): ≥ 17000 nM; Vd [4]: 0.7 L/kg |
| 20 | Cc1ccccc1COc1ccc(Br)cc1-c1ccc(C)n1-c1cccc(C(=O)O)c1 | – |
| 15.8 | Cc1ccc(-c2cc(Br)ccc2OCc2ccc(F)cc2Cl)n1-c1cccc(C(=O)O)c1 | clearance [2]: 48 mL/min/kg; half-life [5]: 18 min; Vd [4]: 0.8 L/kg |
| 100 | Cc1ccc(-c2cc(Br)ccc2OCc2c(F)cccc2C(F)(F)F)n1-c1cccc(C(=O)O)c1 | – |
| 6.31 | Cc1ccc(-c2cc(Cl)ccc2OCc2ccc(F)cc2)n1-c1cccc(C(=O)O)c1 | clearance [2]: 48 mL/min/kg; Vd [4]: 0.9 L/kg |
| 5.01 | Cc1ccc(-c2cc(Br)ccc2OCc2ccc(F)c(F)c2)n1-c1cccc(C(=O)O)c1 | – |
| 7.94 | Cc1ccc(-c2cc(Br)ccc2OCc2cc(F)ccc2F)n1-c1cccc(C(=O)O)c1 | – |
| 200 | O=C(O)c1cccc(-n2c(-c3cc(Cl)ccc3OCc3ccc(F)cc3)ccc2C(F)(F)F)c1 | – |
| 2.51 | Cc1ccc(COc2ccc(Br)cc2-c2ccc(C)n2-c2cccc(C(=O)O)c2)cc1 | – |
| 25.1 | Cc1cc(COc2ccc(Br)cc2-c2ccc(C)n2-c2cccc(C(=O)O)c2)no1 | – |
| > 1000 | Cc1c(Cl)cc(-c2cc(Cl)ccc2OCc2ccccc2)n1-c1cccc(C(=O)O)c1 | – |
| 5.01 | Cc1ccc(-c2cc(Cl)ccc2OCC(C)C)n1-c1cccc(C(=O)O)c1 | – |
| 10 | Cc1ccc(-c2cc(Br)ccc2OCc2cccc(Cl)c2)n1-c1cccc(C(=O)O)c1 | – |
| 1.58 | Cc1ccc(-c2cc(Br)ccc2OCc2c(F)cc(F)cc2F)n1-c1cccc(C(=O)O)c1 | – |
| > 1000 | Cc1c(-c2ccccc2)cc(-c2cc(Cl)ccc2OCc2ccccc2)n1-c1cccc(C(=O)O)c1 | – |
| 39.8 | Cc1ccc(-c2cc(Br)ccc2OCC2CCCCC2)n1-c1cccc(C(=O)O)c1 | – |
| 79.4 | Cc1ccc(-c2cc(Br)ccc2OCc2cccc(OC(F)F)c2)n1-c1cccc(C(=O)O)c1 | – |
| 5.01 | Cc1ccc(-c2cc(Br)ccc2OCc2ccc(Cl)cc2Cl)n1-c1cccc(C(=O)O)c1 | – |
| 3.98 | Cc1ccc(-c2cc(Cl)ccc2OCc2ccc(F)cc2F)n1-c1cccc(C(=O)O)c1 | clearance [2]: 62 mL/min/kg; Vd [4]: 0.9 L/kg |
| 1 | Cc1ccc(-c2cc(Br)ccc2OCc2c(F)cccc2F)n1-c1cccc(C(=O)O)c1 | – |
| 10 | Cc1ccc(-c2cc(Br)ccc2OCc2ccc(Cl)cc2)n1-c1cccc(C(=O)O)c1 | clearance [2]: 51 mL/min/kg; half-life [5]: 12 min; Vd [4]: 0.8 L/kg |
| 20 | Cc1ccc(-c2ccccc2OCc2ccccc2)n1-c1cccc(C(=O)O)c1 | – |
| 12.6 | Cc1ccc(-c2cc(Br)ccc2OCc2ccc(C(F)(F)F)cc2F)n1-c1cccc(C(=O)O)c1 | – |

| IC50 [1] [nM] | SMILES | other results |
| --- | --- | --- |
| 3.16 | Cc1ccc(-c2cc(Br)ccc2OCc2ccccc2F)n1-c1cccc(C(=O)O)c1 | – |
| 200 | Cc1noc(C)c1COc1ccc(Br)cc1-c1ccc(C)n1-c1cccc(C(=O)O)c1 | – |
| 39.8 | Cc1ccc(-c2cc(Cl)ccc2OCC2CCOCC2)n1-c1cccc(C(=O)O)c1 | – |
| 5.01 | Cc1ccc(-c2cc(C(F)(F)F)ccc2OCc2ccccc2)n1-c1cccc(C(=O)O)c1 | – |
| 25.1 | Cc1ccc(-c2cc(S(C)(=O)=O)ccc2OCc2ccccc2)n1-c1cccc(C(=O)O)c1 | – |
| 251 | Cc1ccc(-c2cc(Br)ccc2OCc2cccc(C(F)(F)F)c2)n1-c1cccc(C(=O)O)c1 | – |
| 50.1 | COc1ccc(COc2ccc(Br)cc2-c2ccc(C)n2-c2cccc(C(=O)O)c2)cc1 | – |
| 50.1 | COc1cccc(COc2ccc(Br)cc2-c2ccc(C)n2-c2cccc(C(=O)O)c2)c1 | – |
| 794 | Cc1c(Br)cc(-c2cc(Cl)ccc2OCc2ccccc2)n1-c1cccc(C(=O)O)c1 | clearance [2]: 54 mL/min/kg; half-life [5]: 18 min; Vd [4]: 1 L/kg |
| 398 | Cc1ccc(-c2cc(-c3ccccc3)ccc2OCc2ccccc2)n1-c1cccc(C(=O)O)c1 | – |
| 25.1 | O=C(O)c1cccc(-n2c(Cl)ccc2-c2cc(Cl)ccc2OCc2ccccc2)c1 | – |
| 126 | Cc1ccc(-c2cc(Cl)ccc2OCC2CCCCC2)n1-c1cccc(C(=O)O)c1 | clearance [2]: 28 mL/min/kg; half-life [5]: 24 min; Vd [4]: 0.5 L/kg |
| 15.8 | Cc1ccc(-c2cc(Br)ccc2OCc2ccc(OC(F)(F)F)cc2)n1-c1cccc(C(=O)O)c1 | – |
| 39.8 | Cc1ccc(-c2cc(Cl)ccc2OCC2CCCO2)n1-c1cccc(C(=O)O)c1 (configuration not stated) | – |
| 5.01 | Cc1ccc(-c2cc(Br)ccc2OCC(C)C)n1-c1cccc(C(=O)O)c1 | – |
| 31.6 | Cc1ccc(-c2cc(C(F)(F)F)ccc2OCC2CCCCC2)n1-c1cccc(C(=O)O)c1 | – |
| 100 | Cc1ccc(-c2cc(Br)ccc2OCc2ccc(Cl)c(Cl)c2)n1-c1cccc(C(=O)O)c1 | – |
| 6.31 | Cc1ccc(-c2cc(Br)ccc2OCc2cccc(F)c2F)n1-c1cccc(C(=O)O)c1 | – |
| 100 | CCc1ccc(-c2cc(Cl)ccc2OCc2ccccc2)n1-c1cccc(C(=O)O)c1 | – |
| 79.4 | CCc1ccc(-c2cc(Br)ccc2OCc2ccccc2)n1-c1cccc(C(=O)O)c1 | – |
| 631 | Cc1ccc(-c2cc(-c3ccsc3)ccc2OCc2ccccc2)n1-c1cccc(C(=O)O)c1 | – |
| 39.8 | Cc1ccc(-c2cc(Br)ccc2OCc2ccc(C(F)(F)F)cc2)n1-c1cccc(C(=O)O)c1 | – |
| 12.6 | Cc1ccc(-c2cc(Br)ccc2OCc2c(F)cccc2Cl)n1-c1cccc(C(=O)O)c1 | – |
| 12.6 | Cc1ccc(-c2cc(Br)ccc2OCc2ccccc2Cl)n1-c1cccc(C(=O)O)c1 | – |
| 25.1 | Cc1ccc(-c2cc(Cl)ccc2OCC2CCCC2)n1-c1cccc(C(=O)O)c1 | – |
